The text below walks through data of patent US10925848B2, “Amide derivative” (Daiichi Sankyo Company, Limited, priority 2017, dated 2021).

A value given as a limit tells only on which side of the number the result lay.

Test [1] has as its target tryptophanase of Bacteroides tetaiotaomicron (Bacteroides thetaiotaomicron, UniProt Q8A7N2). Briefly: Tryptophanase enzyme inhibitory activity (LDH-coupled NADH loss). Format: biochemical. The conditions noted are these: 10 mM L-tryptophan, 30 min preincubation at 37° C., absorbance at 340 nm. The procedure: Tryptophanase inhibitory activity was evaluated by a method using lactate dehydrogenase (LDH). The reaction time-dependent reduction in NADH conjugated with the enzymatic reaction, with LDH, of pyruvic acid produced through the enzymatic reaction of L-tryptophan as a substrate with tryptophanase, was measured with a spectrophotometer (Phillips-R S et al., Biochemistry, 23, 6228-6234 (1984)). Enzyme inhibitory activity obtained without adding a test compound (by adding DMSO alone) in the presence of tryptophanase was used as a control. As the enzyme, tryptophanase of Bacteroides tetaiotaomicron (Genbank accession number: HC914434.1) was used.
A test compound solution was prepared by dissolving each test compound in DMSO at concentrations (from 30 mM to 30 nM at 10-fold common ratio). LDH, NADH and L-tryptophan were dissolved, using distilled water, respectively to concentrations of 80 units/mL, 10 mM and 50 mM. Bacteroides tryptophanase was prepared to 30 mg/mL. A potassium phosphate buffer was used as the buffer.
A reaction solution A was dispensed at 284.8 μL per well into a 96-well plate, and the test compound solution was added at 3.2 μL per well to obtain a final concentration of 1/100 (reaction solution B). The reaction solution B was incubated at 37° C. for 30 minutes, L-tryptophan was added thereto at 32 μL per well to obtain a final concentration of […] (reaction solution C), and the enzyme reaction was performed at 37° C. over 30 minutes with absorbance at 340 nm measured for monitoring the NADH loss. Based on the NADH loss, the tryptophanase inhibitory activity of the compound was evaluated.

A further test has as its system Bacteroides. In words: Indole production suppressing effect in viable bacterium. Format: cell-based. The conditions noted are these: 5 mM L-Tryptophan assay medium, anaerobic, indole in culture supernatant, read-out: Bacteroides Indole Production Inhibitory Activity(IC50). The procedure: The effect of a tryptophanase inhibitory compound to suppress indole production from a viable bacterium can be evaluated through the following operation.
When E. coli (Eschelicia coli) is used as a strain known to produce indole, the strain is cultured in an LB medium at 37° C. for 12 to 18 hours under anaerobic conditions, and then, suspended in an assay medium (5 mM L-Tryptophan/PBS(+)/25 mM HEPES (pH8)) in such a manner as to obtain O.D. of about 0.3. When bacteroides is used, the strain is cultured in a modified GAM medium at 37° C. for 12 to 18 hours under anaerobic conditions, and then suspended in an assay medium (5 mM L-Tryptophan/PBS(+)/25 mM HEPES (pH8)) in such a manner as to obtain O.D. of about 1.1. The thus obtained viable bacterial suspension prepared to have a final concentration of a compound of 1 μM to 10 mM is dispensed at 200 μL per well into a 96-well plate and cultured at 37° C. for 2 to 4 hours under anaerobic conditions, O.D., an ATP concentration (that can be quantitatively determined by using BacTiter-Glo (Promega Corporation)) and an indole concentration in the culture supernatant (that can be quantitatively determined by utilizing Ehrlich reaction) are measured. The effect of the tryptophanase inhibitory compound to suppress indole production from a viable bacterium can be evaluated depending on the degree of lowering of the indole concentration in the culture supernatant. It can be checked whether or not the effect is derived from a function other than tryptophanase inhibition, such as a bactericidal function or a bacterial growth inhibitory function, depending on lowering of the O.D. or reduction in the ATP concentration or by performing a generally practiced antibacterial activity test (a MIC (minimum growth inhibition concentration) test) using levofloxacin or the like as a positive control.
The activities of inhibiting indole production of the compounds of the respective examples shown in Table 13 were measured by the above-described method using Bacteroides to evaluate the effect of inhibiting indole production.

Another test deals with plasma indoxyl sulfate. In words: Effect of reducing plasma indoxyl sulfate concentration in mice. Format: in vivo. The conditions noted are these: oral gavage, plasma 6 hours after L-tryptophan. The procedure:
An effect of a tryptophanase inhibitory compound to reduce plasma indoxyl sulfate concentration in a mouse can be evaluated through the following operation.
After fasting male BALB/c mice overnight, a tryptophanase inhibitory compound dissolved or suspended at a concentration of 0.01 to 10 mg/mL in 0.5% methylcellulose (MC) solution used as a solvent and 0.5% MC solution are orally administered by gavage at a volume of 10 mL/kg respectively to test compound groups and to a solvent control group. 30 minutes after the administration of the test compound or the solvent, L-tryptophan, that is, a substrate of tryptophanase, is orally administered by gavage at a dose of 1 to 3 g/kg. The L-tryptophan is suspended in a 0.5% tragacanth solution. For 12 hours after the administration of the L-tryptophan, blood is collected over time from a tail vein by using a hematocrit tube. The thus obtained blood is centrifuged at 11,000 rpm for 5 minutes to collect plasma, and the indoxyl sulfate concentration in the plasma is measured singly by liquid chromatography (fluorescence detection) or its combination with a mass spectrometer used subsequently. Plasma indoxyl sulfate concentration in the test compound group against the plasma indoxyl sulfate concentration in the solvent control group is calculated as, for example, a ratio of the area under a curve of the indoxyl sulfate concentration, and thus, the efficacy of each compound in vivo can be compared.
The indoxyl sulfate concentrations in plasma obtained by using the compounds of the respective examples shown in Table 14 below were measured by the above-described method to evaluate the plasma indoxyl sulfate suppressing effect.

Sequence of tryptophanase of Bacteroides tetaiotaomicron (Q8A7N2 entry or part of it, change not shown): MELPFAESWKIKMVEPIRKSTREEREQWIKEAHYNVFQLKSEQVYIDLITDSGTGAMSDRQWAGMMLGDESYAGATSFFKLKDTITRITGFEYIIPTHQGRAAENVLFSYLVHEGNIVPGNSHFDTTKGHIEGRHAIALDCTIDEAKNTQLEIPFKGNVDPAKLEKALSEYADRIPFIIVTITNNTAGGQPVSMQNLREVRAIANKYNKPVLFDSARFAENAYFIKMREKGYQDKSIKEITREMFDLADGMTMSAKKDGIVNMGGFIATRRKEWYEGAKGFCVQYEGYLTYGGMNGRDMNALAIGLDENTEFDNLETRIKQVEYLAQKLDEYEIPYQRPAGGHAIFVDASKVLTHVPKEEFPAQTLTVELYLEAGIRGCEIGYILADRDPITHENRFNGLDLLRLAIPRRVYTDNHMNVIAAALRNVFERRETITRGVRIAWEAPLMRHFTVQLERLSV

`CCC(CC)(NC(=O)c1ccc(N)cc1)C(=O)O` [Compound of Example 1, 2-[(4-Aminobenzoyl)amino]-2-ethylbutanoic Acid] returned a half-maximal inhibitory concentration (IC50) in test [1] of 27100 nM. On to `CCC(CC)(NC(=O)c1ccc(N)c(C)c1)C(=O)O` [Compound of Example 2, 2-[(4-Amino-3-methylbenzoyl)amino]-2-ethylbutanoic Acid], for which it took 7800 nM to reach half-maximal inhibition in test [1] (IC50). In test [1], `CCC(CC)(NC(=O)c1cc(C)c(N)c(C)c1)C(=O)O` [Compound of Example 3, 2-[(4-Amino-3,5-dimethylbenzoyl)amino]-2-ethylbutanoic Acid] yielded a 50% inhibitory concentration (IC50) of 8000 nM. The same measure, in the same setting: for `CCC(NC(=O)c1ccc(N)c(C)c1)(C(=O)O)C1CC1` (stereo not shown) [Compound of Example 4, 2-[(4-Amino-3-methylbenzoyl)amino]-2-cyclopropyl butanoic Acid] the value was 1700 nM; for `CCC(NC(=O)c1ccc(N)c(Cl)c1)(C(=O)O)C1CC1` (stereo not shown) [Compound of Example 5, 2-[(4-Amino-3-chlorobenzoyl)amino]-2-cyclopropyl butanoic Acid], 1000 nM. With `CCC(CC)(NC(=O)c1cc(Cl)c(N)cc1OC)C(=O)O` [Compound of Example 6, 2-[(4-Amino-5-chloro-2-methoxybenzoyl)amino]-2-ethylbutanoic Acid], the figures for the IC50 (in test [1]; in the test with Bacteroides) were 200 nM and less than 3000 nM, respectively. Besides, in the test on plasma indoxyl sulfate, the “Plasma Indoxyl Sulfate Reduction Effect in Male BALB/c Mouse (Indoxyl sulfate reduction effect in plasma 6 hours after administration of L-tryptophan: ED75-, mg/kg)” value (from here on “Plasma Indoxyl Sulfate Reduction Effect”) came out at 1 mg/kg.

Consider `CCC(CC)(NC(=O)c1cc(F)c(N)c(Cl)c1)C(=O)O` [Compound of Example 7, 2-[(4-Amino-3-chloro-5-fluorobenzoyl)amino]-2-ethylbutanoic Acid], for which the IC50 in test [1] is 6900 nM. The same measure, in the same setting: the figure for `CCOc1cc(N)c(Cl)cc1C(=O)NC(C)(C)C(=O)O` [Compound of Example 8, N-(4-Amino-5-chloro-2-ethoxybenzoyl)-2-methylalanine] is 1300 nM; for `CC(C)Oc1cc(N)c(Cl)cc1C(=O)NC(C)(C)C(=O)O` [Compound of Example 9, N-[4-Amino-5-chloro-2-(propan-2-yloxy)benzoyl)-2-methylalanine] it is 390 nM. As to `CC[C@@](C)(NC(=O)c1cc(Cl)c(N)cc1OC)C(=O)O` [Compound of Example 10, (−)-N-(4-Amino-5-chloro-2-methoxybenzoyl)-D-isovaline], the figures for the IC50 (in test [1]; with Bacteroides) were 1530 nM and less than 3000 nM, respectively. For the same compound, the “Plasma Indoxyl Sulfate Reduction Effect” value with plasma indoxyl sulfate was determined as 1 mg/kg.

Turning to `CCOc1cc(N)c(Cl)cc1C(=O)N[C@](C)(CC)C(=O)O` [Compound of Example 11, (−)-N-(4-Amino-5-chloro-2-ethoxybenzoyl)-D-isovaline], the IC50 was 90 nM in test [1] and less than 3000 nM with Bacteroides. The “Plasma Indoxyl Sulfate Reduction Effect” value with plasma indoxyl sulfate is 1 mg/kg.

In test [1], `CC[C@](C)(NC(=O)c1cc(Cl)c(N)cc1OC)C(=O)O` [Compound of Example 12, (+)-N-(4-Amino-5-chloro-2-methoxybenzoyl)-L-isovaline] gave an IC50 of 310 nM.

Compound `CCOc1cc(N)c(Cl)cc1C(=O)N[C@@](C)(CC)C(=O)O` [Compound of Example 13, (+)-N-(4-Amino-5-chloro-2-ethoxybenzoyl)-L-isovaline] registered an IC50 in test [1] of 80 nM. The compound `CCCOc1cc(N)c(Cl)cc1C(=O)NC(C)(C)C(=O)O` [Compound of Example 14, N-(4-Amino-5-chloro-2-propoxybenzoyl)-2-methylalanine] gave a half-inhibitory concentration (IC50) in test [1] of 200 nM. As to `CC[C@@](C)(NC(=O)c1cc(Br)c(N)cc1OC)C(=O)O` [Compound of Example 15, (−)-N-(4-Amino-5-bromo-2-methoxybenzoyl)-D-isovaline], the IC50 was 770 nM in test [1] and less than 3000 nM in the test on Bacteroides. For the same compound, in the test with plasma indoxyl sulfate, the “Plasma Indoxyl Sulfate Reduction Effect” value stood at 1 mg/kg. For the compound `CC[C@](C)(NC(=O)c1cc(Br)c(N)cc1OC)C(=O)O` [Compound of Example 17, (+)-N-(4-Amino-5-bromo-2-methoxybenzoyl)-L-isovaline], half-maximal inhibition in test [1] (IC50) was put at 140 nM. With `CC[C@](C)(NC(=O)c1cc(I)c(N)cc1OC)C(=O)O` [Compound of Example 18, (+)-N-(4-Amino-5-iodo-2-methoxybenzoyl)-L-isovaline], in test [1], the IC50 turned out to be 100 nM. On the same count and under the same terms, for `CCOc1cc(N)c(Br)cc1C(=O)N[C@@](C)(CC)C(=O)O` [Compound of Example 19, (+)-N-(4-Amino-5-bromo-2-ethoxybenzoyl)-L-isovaline] the value was 60 nM; for `CCOc1cc(N)c(I)cc1C(=O)N[C@@](C)(CC)C(=O)O` [Compound of Example 20, (+)-N-(4-Amino-2-ethoxy-5-iodobenzoyl)-L-isovaline], 50 nM; for `CCOc1cc(N)c(I)cc1C(=O)N[C@](C)(CC)C(=O)O` [Compound of Example 22, (−)-N-(4-Amino-2-ethoxy-5-iodobenzoyl)-D-isovaline], 80 nM. Same read-out and setting: the figure for `CC[C@@](C)(NC(=O)c1cc(C(F)(F)F)c(N)cc1OC)C(=O)O` [Compound of Example 26, (−)-N-(4-Amino-2-methoxy-5-(trifluoromethyl)benzoyl)-D-isovaline] is 840 nM.

In turn, `CC[C@@](C)(NC(=O)c1cc(C)c(N)cc1OC)C(=O)O` [Compound of Example 28, N-(4-Amino-2-methoxy-5-methylbenzoyl)-D-isovaline] returned a half-maximal inhibitory concentration (IC50) in test [1] of 3130 nM. The same measure, in the same setting: for `CCOc1cc(N)c(C#N)cc1C(=O)N[C@](C)(CC)C(=O)O` [Compound of Example 29, (−)-N-(4-Amino-5-cyano-2-ethoxybenzoyl)-D-isovaline] the value was 20 nM; for `CC[C@@](C)(NC(=O)c1cc(F)c(N)cc1OC)C(=O)O` [Compound of Example 30, (−)-N-(4-Amino-5-fluoro-2-methoxybenzoyl)-D-isovaline], 5610 nM.

As for `CC[C@@](C)(NC(=O)c1cc(Cl)c(N)cc1OC(F)F)C(=O)O` [Compound of Example 31, (−)-N-[4-Amino-5-chloro-2-(difluoromethoxy)benzoyl]-D-isovaline], the concentration for half-maximal inhibition (IC50) in test [1] is 110 nM. The same measure, in the same setting: the figure for `CCCOc1cc(N)c(F)cc1C(=O)NC(C)(C)C(=O)O` [Compound of Example 32, N-(4-Amino-5-fluoro-2-propoxybenzoyl)-2-methylalanine] is 540 nM.

A word on the IC50: it is the point on the concentration scale where inhibition reaches its midpoint.
